Data: patent US20060134693A1, “Olfactory cyclic nucleotide-gated channel cell-based assays to identify T1R and T2R taste modulators” (priority 2001, published 2006)

What was measured:
[1] = system: rat bitter receptors rT2R9; conditions: abolished by pertussis toxin; cited from earlier work
[2] = target: T1, mouse bitter receptor mT2R05 (Mus musculus, UniProt Q9JKT4); conditions: abolished by pertussis toxin; cited from earlier work
T1 construct: host or cells: human embryonic kidney cells (earlier application)
T1 sequence (Q9JKT4 1-300): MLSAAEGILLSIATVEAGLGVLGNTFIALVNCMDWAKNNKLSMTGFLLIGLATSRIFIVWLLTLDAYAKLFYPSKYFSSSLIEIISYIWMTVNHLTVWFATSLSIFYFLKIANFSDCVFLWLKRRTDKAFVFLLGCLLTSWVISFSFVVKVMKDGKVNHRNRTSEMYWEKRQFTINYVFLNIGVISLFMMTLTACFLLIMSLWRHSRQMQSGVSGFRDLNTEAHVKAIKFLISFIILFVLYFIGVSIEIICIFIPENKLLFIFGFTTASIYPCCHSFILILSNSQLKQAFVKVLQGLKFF

[3] = target: T2, mT2R05 (Mus musculus, UniProt Q9JKT4); conditions: mT2R05-expressing cells; cited from earlier work
T2 construct: host or cells: human embryonic kidney cells (earlier application)
T2 sequence (Q9JKT4 1-300): T1 sequence (Q9JKT4 1-300)

[4] = system: untransfected HEK 293-oCNGC cells; assay: Isoproterenol-induced calcium influx in untransfected HEK 293-oCNGC cells; format: cell-based, human; conditions: for effect on isoproterenol-induced calcium influx: cells not expressing hT1R2/hT1R3, increasing concentrations, 200 nM isoproterenol, FIG. 14
Method: Delta F/F valves were normalized to the fluorescence obtained after stimulation with 200 nM isoproterenol. Each value corresponds to the mean ± SD of a triplicate determination.
(§1) Modulation of oCNG activity by taste receptors is measured in a cell-based assay that detects changes in intracellular calcium (as described in earlier examples). In brief, human embryonic kidney cells stably expressing the OCNC1 and are β1b subunits of oCNGC are transiently or stably transfected with T1R or T2R receptor plasmids. Transfected cells are seeded into 384-well culture plates, and functional expression is allowed to proceed for about 24 to 48 hours. The cells are then incubated with a calcium specific fluorescent dye (Fluo-4 or Fura-2, available from Molecular Probes) that provides for fast, simple and reliable fluorimetric detection of changes in calcium concentration within the cell.
An experiment was conducted to confirm that the effects of the sweeteners on calcium influx requires the expression of the sweet receptor.
In FIG. 14, it is shown that increasing concentrations of the tested sweeteners had no inhibitory effect on isoproterenol-induced calcium influx in untransfected HEK 293—oCNGC cells. Again, Delta F/F values were normalized to the fluorescence obtained after stimulation with 200 nM isoproternol and each value component to the mean ± SD of a triplicate determination).

[5] = target: T3, bitter receptor mT2R05 (Mus musculus, UniProt Q9JKT4); assay: Isoproterenol-induced calcium influx in HEK-293-oCNGC cells expressing mT2R05; format: cell-based; conditions: 200 nM isoproterenol, FIG. 16
T3 construct: expressed in transfected cells; host or cells: HEK-293 stably expressing OCNC1 and β1b (HEK-293-oCNGC)
T3 sequence (Q9JKT4 1-300): T1 sequence (Q9JKT4 1-300)
Method: Delta F/F values were normalized to the fluorescence obtained after stimulation with 200 nM isoproterenol. Each value corresponds to the mean +1-SD of a triplicate determination. Cells were also treated with PTX as described for the for the preceding figure.
as §1, with “cell. […]” for “cell.”
More specifically, it was shown that PTx prevented inhibition of calcium inluux even with increasing concentrations of cycloheximide in HEK-293—oCNGC cells expressing mT2R05. As in figures above, Delta F/F values were normalized to the fluorescence obtained after stimulation with 200 nM isoproterenol. […]

[6] = target: T4, human sweet receptor hT1R2/hT1R3 (Homo sapiens, UniProt Q7RTX0+Q8TE23); conditions: prevented by pertussis toxin; cited from earlier work
T4 construct: host or cells: human embryonic kidney cells (earlier application U.S. Ser. No. 10/770,127)
T4 sequence (Q8TE23 20-839): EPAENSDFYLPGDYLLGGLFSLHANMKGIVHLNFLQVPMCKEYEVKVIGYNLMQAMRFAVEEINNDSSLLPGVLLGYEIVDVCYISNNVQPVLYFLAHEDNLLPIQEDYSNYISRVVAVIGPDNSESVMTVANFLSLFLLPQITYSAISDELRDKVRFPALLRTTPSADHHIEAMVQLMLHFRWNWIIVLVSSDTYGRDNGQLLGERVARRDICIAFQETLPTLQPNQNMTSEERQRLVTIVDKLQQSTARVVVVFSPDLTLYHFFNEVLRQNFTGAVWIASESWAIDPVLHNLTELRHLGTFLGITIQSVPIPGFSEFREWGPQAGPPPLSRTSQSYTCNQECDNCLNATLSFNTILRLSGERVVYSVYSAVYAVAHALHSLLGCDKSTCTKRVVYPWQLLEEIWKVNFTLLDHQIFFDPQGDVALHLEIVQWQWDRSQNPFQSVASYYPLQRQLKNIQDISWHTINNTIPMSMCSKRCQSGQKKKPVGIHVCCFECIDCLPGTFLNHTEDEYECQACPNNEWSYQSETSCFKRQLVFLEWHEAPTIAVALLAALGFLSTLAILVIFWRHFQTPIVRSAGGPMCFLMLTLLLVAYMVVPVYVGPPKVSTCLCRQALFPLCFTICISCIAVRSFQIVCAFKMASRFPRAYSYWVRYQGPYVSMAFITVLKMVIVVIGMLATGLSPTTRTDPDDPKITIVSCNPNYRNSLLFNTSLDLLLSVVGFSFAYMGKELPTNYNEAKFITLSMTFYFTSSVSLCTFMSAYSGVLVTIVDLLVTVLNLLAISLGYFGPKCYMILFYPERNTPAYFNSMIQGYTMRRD
T4 sequence (Q7RTX0 21-852): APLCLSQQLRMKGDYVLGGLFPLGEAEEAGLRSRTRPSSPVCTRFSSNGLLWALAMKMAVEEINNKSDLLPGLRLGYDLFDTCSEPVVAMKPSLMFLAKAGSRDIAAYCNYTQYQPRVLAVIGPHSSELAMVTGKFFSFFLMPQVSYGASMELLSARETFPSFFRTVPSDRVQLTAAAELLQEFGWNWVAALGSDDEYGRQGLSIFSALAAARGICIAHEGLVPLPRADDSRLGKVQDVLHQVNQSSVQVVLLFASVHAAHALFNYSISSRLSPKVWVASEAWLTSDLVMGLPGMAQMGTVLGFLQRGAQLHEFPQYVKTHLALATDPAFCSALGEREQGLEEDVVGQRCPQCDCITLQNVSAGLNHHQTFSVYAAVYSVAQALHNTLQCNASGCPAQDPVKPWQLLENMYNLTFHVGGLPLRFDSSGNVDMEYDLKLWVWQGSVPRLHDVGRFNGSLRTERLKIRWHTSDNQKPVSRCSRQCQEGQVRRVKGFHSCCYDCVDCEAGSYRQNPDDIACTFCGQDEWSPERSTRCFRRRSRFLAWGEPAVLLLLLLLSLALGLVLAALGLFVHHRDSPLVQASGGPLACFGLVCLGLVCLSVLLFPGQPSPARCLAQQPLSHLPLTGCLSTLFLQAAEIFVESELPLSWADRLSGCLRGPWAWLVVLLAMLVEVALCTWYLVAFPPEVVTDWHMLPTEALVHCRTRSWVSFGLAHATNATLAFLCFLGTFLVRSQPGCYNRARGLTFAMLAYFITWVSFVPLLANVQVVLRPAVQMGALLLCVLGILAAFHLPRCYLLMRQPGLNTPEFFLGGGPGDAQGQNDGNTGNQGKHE

[7] = target: T4, human sweet receptor hT1R2/hT1R3; assay: Isoproterenol-induced calcium influx in HEK-293-oCNGC cells expressing hT1R2/hT1R3; format: cell-based; conditions: PTX 100 ng/ml for 4 hours; 200 nM isoproterenol; 5 mM Aspartame, 2 mM Cyclamate, 4 mM Saccharin, 0.1 mM Neotame; FIG. 15
Method: FIG. 13 contains the result of an experiment showing that increasing concentrations of sweeteners inhibit the isoproterenol-induced-calcium influx in HEK 293-oCNGC cells expressing the human sweet receptor hT1R2/hT1R3. Delta F/F values were normalized to the fluorescence obtained after stimulation with 200 nM isoproterenol. Each value corresponds to the mean ± SD of a triplicate determination.
Cells were left untreated (control) or treated with PTX for 4 hours at 100 ng/ml prior to the experiment. Cells were then stimulated with 200 nM isoproterenol in the presence or absence of the indicated sweeteners (5 mM Aspartame, 2 mM Cyclamate, 4 mM Saccharin and 0.1 mM Neotame).
as §1
An experiment was conducted to assess the effect of various sweeteners (known to activate the human T1R2/T1R3 sweet receptor) on isoproterenol-induced calcium influx in HEK-293—oCNGC cells that express the human T1R2/T1R3 sweet receptor. As shown by the results in FIG. 13, increasing concentrations of sweetener inhibits isoproterenol-induced calcium influx in these cells. (In the figure, Delta F/F values were normalized to the fluorescence obtained after stimulation with 200 nM isoproterenol and each value corresponds to the means ± SD of a triplicate determination). […]

[8] = target: T5, human umami receptor hT1R1/hT1R3 (Homo sapiens, UniProt Q7RTX0+Q7RTX1); conditions: prevented by pertussis toxin; cited from earlier work
T5 sequence (Q7RTX1 21-841): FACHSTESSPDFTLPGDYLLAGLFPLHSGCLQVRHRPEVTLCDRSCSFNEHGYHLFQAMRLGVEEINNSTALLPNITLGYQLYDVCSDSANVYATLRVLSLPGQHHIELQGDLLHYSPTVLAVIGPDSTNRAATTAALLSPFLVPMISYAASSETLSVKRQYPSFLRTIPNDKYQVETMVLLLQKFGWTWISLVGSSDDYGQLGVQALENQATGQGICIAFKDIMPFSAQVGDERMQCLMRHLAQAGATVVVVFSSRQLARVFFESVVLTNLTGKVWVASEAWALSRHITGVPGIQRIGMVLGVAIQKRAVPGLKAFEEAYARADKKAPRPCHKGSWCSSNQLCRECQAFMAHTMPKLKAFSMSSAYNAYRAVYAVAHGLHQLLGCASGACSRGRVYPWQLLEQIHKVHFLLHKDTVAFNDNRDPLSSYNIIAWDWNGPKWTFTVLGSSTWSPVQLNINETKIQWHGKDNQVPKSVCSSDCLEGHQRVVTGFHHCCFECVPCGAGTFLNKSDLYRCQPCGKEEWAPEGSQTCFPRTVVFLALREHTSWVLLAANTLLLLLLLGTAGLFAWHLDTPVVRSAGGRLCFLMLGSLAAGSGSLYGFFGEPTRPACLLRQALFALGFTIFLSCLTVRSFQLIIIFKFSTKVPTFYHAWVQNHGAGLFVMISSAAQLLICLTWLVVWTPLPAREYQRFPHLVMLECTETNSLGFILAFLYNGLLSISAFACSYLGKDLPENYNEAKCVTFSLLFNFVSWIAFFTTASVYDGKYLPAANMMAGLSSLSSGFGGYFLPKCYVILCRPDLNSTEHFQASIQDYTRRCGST
T5 sequence (Q7RTX0 21-852): T4 sequence (Q7RTX0 21-852)

[9] = target: T6, hT1R1/hT1R3 (Homo sapiens, UniProt Q7RTX0+Q7RTX1); conditions: hT1R1/hT1R3-expressing cells; cited from earlier work
T6 construct: host or cells: human embryonic kidney cells (earlier application U.S. Ser. No. 10/770,127)
T6 sequence (Q7RTX1 21-841): T5 sequence (Q7RTX1 21-841)
T6 sequence (Q7RTX0 21-852): T4 sequence (Q7RTX0 21-852)

C[C@@H]1C[C@@H]([C@H](O)CC2CC(=O)NC(=O)C2)C(=O)[C@@H](C)C1 [cycloheximide]
ERK1/2 activation [1]: specifically activates ERK1/2 | ERK1/2 activation [2]: specifically activates ERK1/2 | inhibition of forskolin-induced cAMP accumulation [3]: 70% | response of mT2R05 untransfected cells ([4]; untransfected HEK 293-oCNGC cells, FIG. 16): did not respond | effect on isoproterenol-induced calcium influx after PTx treatment ([5]; cells treated with PTx): failed to inhibit isoproterenol-induced calcium influx | effect on isoproterenol-induced calcium influx ([5]; increasing concentrations): inhibited isoproterenol-induced calcium influx

OC[C@H]1O[C@@](CO)(O[C@H]2O[C@H](CO)[C@@H](O)[C@H](O)[C@H]2O)[C@@H](O)[C@@H]1O [sucrose]
ERK1/2 activation [6]: activate ERK1/2

O=C1NS(=O)(=O)c2ccccc21 [saccharin]
inhibition of isoproterenol-induced calcium influx after PTx pretreatment [7]: prevented the inhibition | ERK1/2 activation [6]: activate ERK1/2 | effect on isoproterenol-induced calcium influx [4]: unaffected

N[C@H](Cc1c[nH]c2ccccc12)C(=O)O [D-tryptophan]
ERK1/2 activation [6]: activate ERK1/2

COC(=O)[C@H](Cc1ccccc1)NC(=O)[C@H](CC(=O)O)NCCC(C)(C)C [neotame]
inhibition of isoproterenol-induced calcium influx after PTx pretreatment [7]: prevented the inhibition | effect on isoproterenol-induced calcium influx [4]: unaffected

N[C@@H](CCC(=O)O)C(=O)[O-].[Na+] [monosodium glutamate]
ERK1/2 activation [8]: exclusively activates ERK1/2 | decrease of basal levels of cAMP [9]: 50%
